The record followed here is patent US11825838B2, “Tricyclic carboxamides for controlling arthropods” (Bayer CropScience Aktiengesellschaft, priority 2017, dated 2023).

What all share (format): in vivo
In experiment [1] the test system is Ctenocephalides felis. As to the kind of experiment: Ctenocephalides felis in vitro contact test with adult cat fleas. Conditions: application rate 5 μg/cm^2 (=500 g/ha), after 48 h, adult cat fleas dead or moribund. The method, then:
Ctenocephalides felis—In Vitro Contact Tests with Adult Cat Fleas
For the coating of the test tubes, 9 mg of active ingredient are first dissolved in 1 ml of acetone p.a. and then diluted to the desired concentration with acetone p.a. 250 μl of the solution are distributed homogeneously on the inner walls and the base of a 25 ml glass tube by turning and rocking on an orbital shaker (rocking rotation at 30 rpm for 2 h). With 900 ppm of active ingredient solution and internal surface area 44.7 cm^2, given homogeneous distribution, an area-based dose of 5 μg/cm^2 is achieved.
After the solvent has evaporated off, the tubes are populated with 5-10 adult cat fleas (Ctenocephalides felis), sealed with a perforated plastic lid and incubated in a horizontal position at room temperature and ambient humidity. After 48 h, efficacy is determined. To this end, the tubes are stood upright and the fleas are knocked to the base of the tube. Fleas which remain motionless at the base or move in an uncoordinated manner are considered to be dead or moribund.
100% efficacy means that all the fleas were dead or moribund. 0% efficacy means that no fleas were harmed.

In experiment [2] the test system is cattle ticks (Boophilus microplus) Parkhurst strain, SP-resistant. Briefly: Boophilus microplus dip test. To be noted: application rate 100 ppm, assessed after 7 days by laying of fertile eggs. The procedure:
Boophilus microplus—Dip Test
Test animals: cattle ticks (Boophilus microplus) Parkhurst strain, SP-resistant
Solvent: dimethyl sulfoxide
10 mg of active ingredient are dissolved in 0.5 ml of dimethyl sulfoxide. To produce a suitable formulation, the active ingredient solution is diluted with water to the concentration desired in each case. This active ingredient formulation is pipetted into tubes. 8-10 engorged adult female cattle ticks (Boophilus microplus) are transferred into a further tube with holes. The tube is immersed into the active ingredient formulation, and all the ticks are completely wetted. After the liquid has run out, the ticks are transferred on filter discs into plastic dishes and stored in a climate-controlled room.
Efficacy is assessed after 7 days by laying of fertile eggs. Eggs which are not visibly fertile are stored in a climate-controlled cabinet until the larvae hatch after about 42 days. An efficacy of 100% means that none of the ticks has laid any fertile eggs; 0% means that all the eggs are fertile.

For experiment [3], the system named is Boophilus microplus. Briefly: Boophilus microplus injection test. To be noted: application rate 20 μg/animal, assessed after 7 days by laying of fertile eggs.
Experiment [4] concerns Ctenocephalides felis. Briefly: Ctenocephalides felis oral test. Conditions: application rate 100 ppm in citrated cattle blood, after 2 days.
Experiment [5] concerns Lucilia cuprina. Briefly: Lucilia cuprina test. Conditions: application rate 100 ppm, L1 larvae, after 2 days.
Experiment [6] relates to Musca domestica. As to the kind of experiment: Musca domestica test. Conditions: application rate 100 ppm, adult houseflies, after 2 days.
In experiment [7] the test system is Myzus persicae. As to the kind of experiment: Myzus persicae spray test (MYZUPE). To be noted: for efficacy: application rate 100 g/ha, spray, after 5 days. The procedure:
Myzus persicae—Spray Test
To produce a suitable active ingredient formulation, 1 part by weight of active ingredient is dissolved with the specified parts by weight of solvent and made up to the desired concentration with water containing an emulsifier concentration of 1000 ppm. To produce further test concentrations, the formulation is diluted with emulsifier-containing water.
Discs of Chinese cabbage leaves (Brassica pekinensis) infested by all stages of the green peach aphid (Myzus persicae) are sprayed with an active compound preparation of the desired concentration.
After 5 days, the efficacy in % is determined. 100% means that all the aphids have been killed; 0% means that no aphids have been killed.
Myzus Persicae—Spray Test (MYZUPE)
To produce a suitable active compound formulation, 1 part by weight of active compound is dissolved with the specified parts by weight of solvent and made up to the desired concentration with water containing an emulsifier concentration of 1000 ppm. To produce further test concentrations, the formulation is diluted with emulsifier-containing water.
Discs of Chinese cabbage leaves (Brassica pekinensis) infested with all stages of the green peach aphid (Myzus persicae) are sprayed with an active compound formulation of the desired concentration.
After the desired time, the efficacy in % is determined. 100% means that all the aphids have been killed; 0% means that no aphids have been killed.

Experiment [8] has as its system Phaedon cochleariae. Briefly: Phaedon cochleariae spray test (PHAECO).

For the molecule `O=C(NC1CC1)c1cc(-c2cnn(-c3c(Cl)cc(C(F)(C(F)(F)F)C(F)(F)F)cc3Cl)c2)sc1Br` [I-T1-1], the efficacy in experiment [1], in experiment [2], in experiment [3] and in experiment [7] was 100% throughout. The “efficacy (rate of extermination)” value in experiment [4], in experiment [5] and in experiment [6] was 100% in each case. For the same molecule, the Emax at 100 g/ha in experiment [7] (Myzus persicae, 120 h, MYZUPE, 100 g ai/ha, 5 dat, read-out: % efficacy dat) is 100%; in experiment [8] (Phaedon cochleariae, 168 h, PHAECO, 100 g ai/ha, 7 dat, read-out: % efficacy dat) it was 100%. Also, in experiment [8] (Phaedon cochleariae, 168 h, application rate 100 g/ha, spray, after 7 days, read-out: efficacy), the pest or weed control at 100 g/ha was 100%.
With `Cc1sc(-c2cnn(-c3c(Cl)cc(C(F)(C(F)(F)F)C(F)(F)F)cc3Cl)c2)cc1C(=O)NC1CC1` [I-T1-11], the efficacy in experiment [1] is 100%; in experiment [2], 100%; in experiment [3], 100%; in experiment [7] it was 90%; in experiment [8] (application rate 100 g/ha, spray, after 7 days) it was 100%. For the same molecule, the “efficacy (rate of extermination)” value in experiment [4], in experiment [5] and in experiment [6] was 100% in each case.
